Legend:
[1] = system: thiobarbituric acid-reactive substances (TBARS) in rat brain homogenate; test: Antioxidative activity, method 1: TBARS level in oxidised rat brain homogenate; assay type: biochemical; conditions: ethanol solutions, 100 mM of each substance, 37° C., 27 hours
Procedure: In method 1 of measuring antioxidative activity, a level of thiobarbituric acid-reactive substances (TBARS) generated by an oxidative reaction was determined (Buege J. A. and Aust S. D., Methods Enzymol., 1978, 52: 302).
In this method, rat brain was homogenized in about 2.5 times by weight of saline to prepare a brain homogenate. The brain homogenate (80 μl), an ethanol solution (30 μl) containing antioxidative substance, Eagle's MEM medium (120 μl) , CuSO4 (240 μM), and FeCl3 (240 μM) were mixed and the mixture was maintained at 37° C. for 27 hours. Then, a 20% trichloroacetic acid (TCA) solution (0.9 ml) and a 0.67% thiobarbituric acid (TBA) solution (0.9 ml) were added and the resulting mixture was heated at 100° C. for 30 minutes. After cooling by water, the mixture was centrifuged to separate a supernatant. The absorbance of the supernatant was measured at 532 nm. […] The antioxidative activity (%) of an antioxidative substance was determined by the ratio of a decrease of the TBARS content in the presence of an antioxidative substance to the TBARS content in the absence of an antioxidative substance.
According to the above-mentioned methods, the antioxidative activity (A) in combination of reduced coenzyme Q10 and a carotenoid, the antioxidative activity (B) of reduced coenzyme Q10 used alone, and the antioxidative activity (C) of the carotenoid used alone are measured. […]

[2] = Antioxidative activity, method 2: DPPH spectrometry; conditions: ethanol solutions, 25 μM of each substance, after 20 minutes, calibrated with catechin
Procedure: Since the TBARS is red, method 1 cannot accurately determine absorbance of some carotenoids. Therefore, spectrometry using 1,1-dipehnyl-2-picrylhydrazyl (DPPH) was also conducted (K. Shinohara and T. Suzuki, Shokuhin-Kinou-Kenkyuho (Methods for Functional Food Analysis), 2000, 218).
In method 2, 12 ml of a 200 mM MES buffer (pH 6.0) was added to 12 ml of a 400 μM DPPH ethanol solution. Then, 12 ml ethanol was added to prepare a mixture. An ethanol solution (0.6 ml) containing an antioxidative substance was added to the mixture (0.9 ml). After 20 minutes, the absorbance of the mixture was measured at 510 nm. In this measuring system, the absorbance decreases as the antioxidative activity of the antioxidative substance increases. The antioxidative activity of the antioxidative substance was quantitatively determined using a calibration curve prepared with catechin. Namely, the minimum absorbance when DPPH radicals were completely consumed with an excess amount of catechin corresponded to 100% antioxidative activity. The maximum absorbance when DPPH radicals were not consumed at all corresponded to 0% antioxidative activity. The calibration curve was drawn from these 2 points and the antioxidative activity (%) was determined from the absorbance of the antioxidative substance.
According to the above-mentioned methods, the antioxidative activity (A) in combination of reduced coenzyme Q10 and a carotenoid, the antioxidative activity (B) of reduced coenzyme Q10 used alone, and the antioxidative activity (C) of the carotenoid used alone are measured. The antioxidative activity in combination of reduced coenzyme Q10 and the carotenoid is compared with the sum (additive effect) of the antioxidative activity of reduced coenzyme Q10 alone and the antioxidative activity of the carotenoid alone in order to investigate the synergistic effect.
In the present invention, both the following two formulae were used to correctly determine if the use in combination of reduced coenzyme Q10 and a carotenoid show synergistic effect. […]

Row | SMILES | Antioxidative Activity (%) (Inhibition Ratio of Oxidation) [1] | Antioxidative Activity (%) (Inhibition Ratio of Oxidation) [2]
1 | CC1=C(/C=C/C(C)=C/C=C/C(C)=C/C=C/C=C(C)/C=C/C=C(C)/C=C/C2=C(C)C(=O)[C@@H](O)CC2(C)C)C(C)(C)C[C@H](O)C1=O [Astaxanthin, astaxanthin] | 21.6 | 
2 | CC1=C(/C=C/C(C)=C/C=C/C(C)=C/C=C/C=C(C)/C=C/C=C(C)/C=C/C2=C(C)CCCC2(C)C)C(C)(C)CCC1 [β-Carotene, β-carotene] |  | 8.8
3 | COc1c(O)c(C)c(C/C=C(\C)CC/C=C(\C)CC/C=C(\C)CC/C=C(\C)CC/C=C(\C)CC/C=C(\C)CC/C=C(\C)CC/C=C(\C)CC/C=C(\C)CCC=C(C)C)c(O)c1OC [Reduced coenzyme Q10, reduced coenzyme Q10] | 10.9 | 10.3
4 | CC(C)=CCC/C(C)=C/C=C/C(C)=C/C=C/C(C)=C/C=C/C=C(C)/C=C/C=C(C)/C=C/C=C(\C)CCC=C(C)C [Lycopene, lycopene] |  | 0.9

Reference: patent US20050226858A1, “Compositions containing reduced coenzyme Q10 and carotenoid” (KANEKA CORPORATION, priority 2004, published 2005)
